According to patent publication US11040954B1, “CXCR3 receptor agonists” (RECEPTOS LLC, priority 2016, dated 2021):
pEC50: −log10 of the molar value.

Assays:
[1] = Mouse pharmacokinetics after oral gavage, plasma drug concentration by LC-MS/MS (BALB/c); assay type: in vivo; details: 10 mg/kg, male mice; for Cmax / AUC(0-t): mouse, plasma; for AUC(0-t): read-out: AUC0-24
Experimental: (§1) Compounds were formulated in 5% DMSO/5% Tween20 in H2O, sonicated, vortexed, and put on stir plate overnight at a dose volume of 10 mL/kg. Balb/C (Jackson laboratories) or C57bl/6 (Taconic Biosciences) mice (8-9 weeks old) were acclimated to the colony for 3 days prior to dosing. Water and food were provided ab libitum. Compounds were administered by oral gavage. Groups of six animals received 3 to 4 bleeds per day with one terminal bleed. The time points were 30 min, 1 h, 2 h, 4 h, 6 h, 8 h, 24 h. Plasma was collected via centrifugation and analyzed for drug concentrations.
(§2) Preparation of Study Samples and Standards for Analysis by LC-MS/MS
(§3) 50 μl of plasma was aliquoted into a 96 well deep-well polypropylene plate (2 mL) to which 5 μL of DMSO was added. For standards, 5 μl of test compound in DMSO at […] the standard concentration was added to 50 μl of blank matrix in a 96 well deep-well polypropylene plate. For example, for a 300 nM standard, the 10× DMSO concentration was 3 μM. Study samples that require dilution are diluted with the appropriate blank matrix. For example, for a 10× dilution, 5 μL of study sample is added to 45 μl of blank matrix. Protein was precipitated from study samples and standards with the addition of 150 μl of acetonitrile. After a clean plate map was placed firmly over the top of the 96-well plate, a bench top shaker was used for 1 min to ensure complete precipitation of protein. The precipitated protein was pelleted by centrifuging for 3,000 rpm for 10 min at 20° C. and then the clear supernatant was transferred to a clean 96-well plate and spun again under the same conditions in order to pellet any solid material that may have been transferred.
(§4) Analysis of Study Samples and Standards with LCMS with MRM Detection
(§5) An Agilent 1200 HPLC with binary pump and a Leap CTC with fast wash autosampler were used to introduce samples to the mass spectrometer.
(§6) The column used was a Phenomenex Luna C8 30×2 mm 5 μm with a security guard. Mass detection was performed by an Applied Biosystems 4000 Qtrap in MRM mode and ionization was achieved by positive electrospray with a source temperature of 500° C. The ion transitions, […] potential and collision energies were dependent on the specific analyte.
(§7) Prepared samples were usually analyzed in reverse chronological order with bracketing standard curves. Typically at least 6 standards were used for quantification with a percent accuracy of +/−15% for all standards except at the LLOQ where a percent accuracy of +/−20% was allowed. The concentration time profile was fit using a one compartment model for the applicable mode of dosing using Phoenix WinNonLin 6.4.

[2] = biological target: T1, CXCR3 (Homo sapiens, UniProt P49682); assay: CXCR3 cAMP agonist assay (cAMP Hunter CHOK1 CXCR3 Gi cell line, forskolin-stimulated, HitHunter cAMP detection); assay type: cell-based; details: cAMP Hunter CHOK1 CXCR3 Gi cells, 20 μM forskolin, 30 minutes; read-out: Activity (CXCR3 cAMP agonist assay compound EC50)
T1 construct: host or cells: CHO-K1 (cAMP Hunter CHOK1 CXCR3 Gi cell line)
T1 sequence (P49682 1-368): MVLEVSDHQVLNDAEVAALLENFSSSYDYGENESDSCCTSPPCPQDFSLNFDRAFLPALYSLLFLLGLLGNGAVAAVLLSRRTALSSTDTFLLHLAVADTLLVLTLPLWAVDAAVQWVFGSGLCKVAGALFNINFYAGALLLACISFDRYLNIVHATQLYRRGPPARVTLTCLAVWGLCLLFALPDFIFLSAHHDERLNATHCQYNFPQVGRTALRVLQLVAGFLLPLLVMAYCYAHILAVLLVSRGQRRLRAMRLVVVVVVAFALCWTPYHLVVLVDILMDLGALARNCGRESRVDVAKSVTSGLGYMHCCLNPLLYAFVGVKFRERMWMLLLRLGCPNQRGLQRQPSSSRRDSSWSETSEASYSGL
Procedure, shortened: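 Agonist activity was measured as suppression of forskolin (20 μM)-induced cAMP, read by luminescent enzyme-fragment complementation with a cAMP standard curve and CXCL11 defining full efficacy. Assay used 50,000 CXCR3 Gi CHOK1 cells/well in pH 7.4 HEPES-buffered HBSS with 0.1% BSA, compound 0-10 μM over 12 points, 30 min incubation.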

[3] = Mouse pharmacokinetics after oral gavage, plasma drug concentration by LC-MS/MS (C57BL/6); assay type: in vivo, C57bl/6 mice; details: for Cmax / AUC(0-t): mouse, plasma; for AUC(0-t): read-out: AUC0-24
Experimental: as §1, §2, §3, §4, §5, §6, §7

Cmax [1] | AUC(0-t) [1] | pEC50 [2] | apparent oral clearance (CL/F) ([3]; C57BL/6, 60 mg/kg, female mice) | Cmax ([3]; C57BL/6, 60 mg/kg, female mice) | AUC(0-t) ([3]; C57BL/6, 60 mg/kg, female mice) | SMILES | further results
1300 nM | 4.9 µM·h | > 7.30 | – | – | – | Cc1cc(NC(=O)[C@H](CCN)NC(=O)[C@@H]2Cc3ccccc3CN2C(=O)CCC(=O)c2ccccc2)c(C)cc1Cl [Compound 2-19] | apparent oral clearance (CL/F) [1]: 59 mL/min/kg
2900 nM | 6.2 µM·h | > 7.30 | – | – | – | Cc1cc(NC(=O)[C@H](CCN)NC(=O)[C@@H]2Cc3ccccc3CN2C(=O)CCC(=O)c2ccccc2)c(F)cc1Cl [Compound 2-18] | apparent oral clearance (CL/F) [1]: 47 mL/min/kg
400 nM | 0.8 µM·h | > 7.30 | – | – | – | Cc1ccc(NC(=O)[C@H](CCN)NC(=O)[C@@H]2Cc3ccccc3CN2C(=O)CCC(=O)c2ccccc2)cc1C [Compound 2-3] | apparent oral clearance (CL/F) [1]: 403 mL/min/kg
3 nM | 0.006 µM·h | > 7.30 | – | – | – | NCCCC[C@H](NC(=O)[C@@H]1Cc2ccccc2CN1C(=O)CCC(=O)c1ccccc1)C(=O)Nc1ccc(F)c(C(F)(F)F)c1 [Compound 1-26] | –
– | – | > 7.30 | 66 mL/min/kg | 7600 nM | 27.5 µM·h | NCC[C@H](NC(=O)[C@@H]1Cc2ccccc2CN1C(=O)CCC(=O)c1ccccc1)C(=O)Nc1ccc2c(c1)CCC2 [Compound 2-47] | –
20 nM | 0.03 µM·h | > 7.30 | – | – | – | CNCCCC[C@H](NC(=O)[C@@H]1Cc2ccccc2CN1C(=O)CCC(=O)c1ccccc1)C(=O)Nc1ccc(Cl)c(C)c1 [Compound 4-4] | –
– | – | > 7.30 | 90 mL/min/kg | 5700 nM | 17.6 µM·h | CC1(C)CCCN(C(=O)CCC(=O)N2Cc3ccccc3C[C@H]2C(=O)N[C@@H](CCN)C(=O)Nc2ccc(Cl)c(Cl)c2F)C1 [Compound 15-6] | –
– | – | > 7.30 | 98 mL/min/kg | 6700 nM | 16.3 µM·h | Cc1c(Cl)ccc(NC(=O)[C@H](CCN)NC(=O)[C@@H]2Cc3ccccc3CN2C(=O)CCC(=O)N2CCCC23CCC3)c1Cl [Compound 15-48] | –
– | – | > 7.30 | 132 mL/min/kg | 4300 nM | 12.4 µM·h | Cc1cc(NC(=O)[C@H](CCN)NC(=O)[C@@H]2Cc3ccccc3CN2C(=O)CCC(=O)N2CCCC(C)(C)C2)cc(C)c1Cl [Compound 10-9] | –
– | – | > 7.30 | – | – | – | COc1cc(Cl)c(Cl)cc1NC(=O)[C@H](CCN)NC(=O)[C@@H]1Cc2ccccc2CN1C(=O)CCC(=O)c1ccccc1 [Compound 2-23] | apparent oral clearance (CL/F) ([3]; C57BL/6, 60 mg/kg, male mice): 88 mL/min/kg; Cmax ([3]; C57BL/6, 60 mg/kg, male mice): 3900 nM; AUC(0-t) ([3]; C57BL/6, 60 mg/kg, male mice): 19 µM·h
– | – | > 7.30 | 16 mL/min/kg | 5200 nM | 99 µM·h | O=C(CCC(=O)N1Cc2ccccc2C[C@H]1C(=O)NC1(C(=O)Nc2ccc(Cl)c(Cl)c2F)CCNCC1)c1ccccc1 [Compound 4-14] | –
– | – | > 7.30 | 393 mL/min/kg | 1500 nM | 4.4 µM·h | N#Cc1cc2c(cc1NC(=O)[C@H](CCN)NC(=O)[C@@H]1Cc3ccccc3CN1C(=O)CCC(=O)c1ccccc1)CCC2 [Compound 2-57] | –
– | – | > 7.30 | 851 mL/min/kg | 500 nM | 1.8 µM·h | CN1CCN(C(=O)CCC(=O)N2Cc3ccccc3C[C@H]2C(=O)NC2(C(=O)Nc3ccc(Cl)c(Cl)c3F)CCNCC2)CC1 [Compound 12-138] | –
– | – | > 7.30 | 666 mL/min/kg | 600 nM | 2.4 µM·h | CC1(C)CCCCN1C(=O)CCC(=O)N1Cc2ccccc2C[C@H]1C(=O)N[C@@H](CCN)C(=O)Nc1ccc(Cl)c(Cl)c1F [Compound 15-3] | –
– | – | > 7.30 | 1100 mL/min/kg | 600 nM | 1.4 µM·h | CC1(C)CCCCN1C(=O)CCC(=O)N1Cc2cc(F)ccc2C[C@H]1C(=O)N[C@@H](CCN)C(=O)Nc1ccc(Cl)c(Cl)c1F [Compound 15-62] | –

Further lines, the compound ahead of its results:

SMILES | Cmax [1] | AUC(0-t) [1] | pEC50 [2] | apparent oral clearance (CL/F) ([3]; C57BL/6, 60 mg/kg, female mice) | Cmax ([3]; C57BL/6, 60 mg/kg, female mice) | AUC(0-t) ([3]; C57BL/6, 60 mg/kg, female mice) | further results
Cc1cc(Cl)c(Cl)cc1NC(=O)[C@H](CCN)NC(=O)[C@@H]1Cc2ccccc2CN1C(=O)CCC(=O)c1ccccc1 [Compound 2-21] | 900 nM | 4.3 µM·h | > 7.30 | – | – | – | apparent oral clearance (CL/F) [1]: 65 mL/min/kg
Cc1cc(NC(=O)[C@H](CCCN)NC(=O)[C@@H]2Cc3ccccc3CN2C(=O)CCC(=O)c2ccccc2)ccc1Cl [Compound 4-3] | 30 nM | 0.06 µM·h | > 7.30 | – | – | – | apparent oral clearance (CL/F) [1]: 4627 mL/min/kg
Cc1cccc(NC(=O)[C@H](CCN)NC(=O)[C@@H]2Cc3ccccc3CN2C(=O)CCC(=O)c2ccccc2)c1 [Compound 2-5] | 500 nM | 0.8 µM·h | > 7.30 | – | – | – | apparent oral clearance (CL/F) [1]: 389 mL/min/kg
Cc1cccc(NC(=O)[C@H](CCN)NC(=O)[C@@H]2Cc3ccccc3CN2C(=O)CCC(=O)c2ccccc2)c1C [Compound 2-49] | – | – | > 7.30 | 131 mL/min/kg | 7100 nM | 14.1 µM·h | –
Cc1cc(NC(=O)[C@@H](NC(=O)[C@@H]2Cc3ccccc3CN2C(=O)CCC(=O)c2ccccc2)C2CCN(C(C)C)CC2)ccc1Cl [Compound 8-2] | – | – | > 7.30 | – | – | – | apparent oral clearance (CL/F) ([3]; C57BL/6, 10 mg/kg, male mice): 112 mL/min/kg; Cmax ([3]; C57BL/6, 10 mg/kg, male mice): 710 nM; AUC(0-t) ([3]; C57BL/6, 10 mg/kg, male mice): 2.3 µM·h
Cc1cc(NC(=O)C2(NC(=O)[C@@H]3Cc4ccccc4CN3C(=O)CCC(=O)c3ccccc3)CCN(C)CC2)ccc1Cl [Compound 6-4] | – | – | 6.60 to 7.30 | – | – | – | apparent oral clearance (CL/F) ([3]; C57BL/6, 10 mg/kg, male mice): 33 mL/min/kg; Cmax ([3]; C57BL/6, 10 mg/kg, male mice): 810 nM; AUC(0-t) ([3]; C57BL/6, 10 mg/kg, male mice): 8.3 µM·h
CC1(C)CCN(C(=O)CCC(=O)N2Cc3ccccc3C[C@H]2C(=O)N[C@@H](CCN)C(=O)Nc2ccc(Cl)c(Cl)c2F)C1 [Compound 15-2] | – | – | > 7.30 | 347 mL/min/kg | 1800 nM | 4.6 µM·h | –
Cc1cc(NC(=O)[C@H](CCN)NC(=O)[C@@H]2Cc3ccccc3CN2C(=O)CCC(=O)c2ccccc2)c(C#N)cc1Cl [Compound 14-18] | – | – | > 7.30 | 222 mL/min/kg | 3200 nM | 7.7 µM·h | –
Cc1cc(NC(=O)[C@H](CC23CC(N)(C2)C3)NC(=O)[C@@H]2Cc3ccccc3CN2C(=O)CCC(=O)c2ccccc2)ccc1Cl [Compound 22-1, (S)—N—((S)-3-(3-aminobicyclo[1.1.1]pentan-1-yl)-1-((4-chloro-3-methylphenyl)amino)-1-oxopropan-2-yl)-2-(4-oxo-4-phenylbutanoyl)-1,2,3,4-tetrahydroisoquinoline-3-carboxamide] | – | – | > 7.30 | 34 mL/min/kg | 7300 nM | 48 µM·h | –
Cc1ccc(C(F)(F)F)c(NC(=O)[C@H](CCN)NC(=O)[C@@H]2Cc3ccccc3CN2C(=O)CCC(=O)c2ccccc2)c1 [Compound 14-17] | – | – | > 7.30 | 22 mL/min/kg | 22000 nM | 78 µM·h | –
